Experimental data published in patent publication US20230293630A1, “Coronavirus T Cell Epitopes and Uses Thereof” (priority 2020, published 2023).

Each sequence was assayed on SARS-CoV-2-specific CD4+ T cells (OX40+CD137+) in PBMC. Conditions: not given.
Type: cell-based, human

Sequence | Frequency of response (%) | Magnitude by # of responding donors | Sum of response
PCPIHFYSKWYIRVG | 55 | 491 | 2948
CLVGLMWLSYFIASF | 33 | 295 | 1181
PSGTWLTYTGAIKLD [SEQ ID NO 248] | 42 | 517 | 2583

Same assay, conditions: CD4+ T cell epitopes identified by AIM assay; percent of tested donors responding

Sequence | Frequency of response (%)
CPFGEVFNATRFASV | 9
YIRVGARKSAPLIEL [SEQ ID NO 256] | 18
LMIERFVSLAIDAYP [SEQ ID NO 259] | 36
APHGVVFLHVTYVPA | 7
TQLNRALTGIAVEQD | 8
CTFEYVSQPFLMDLE | 64

Same assay, conditions: CD4+ T cell epitopes identified by AIM assay; share of donors responding

Sequence | Frequency of response (%)
PNFSKLINIIIWFLL | 8
GYKKPASRELKVTFF | 15
FNICQAVTANVNALL | 6
GTILTRPLLESELVI | 17
IGNYKLNTDHSSSSD | 15
TRRIRGGDGKMKDLS | 8
NKDGIIWVATEGALN | 29
CVDEAGSKSPIQYID | 9
LEAPFLYLYALVYFL | 7
KEITVATSRTLSYYK | 54
TNCYDYCIPYNSVTS | 7
RGHLRIAGHHLGRCD | 42
FGTTLDSKTQSLLIV | 9
FVSLAIDAYPLTKHP | 14
VNARLRAKHYVYIGD | 8
FGLVAEWFLAYILFT | 8
EKSNIIRGWIFGTTL | 9
DAALALLLLDRLNQL [SEQ ID NO 246] | 21
EGALNTPKDHIGTRN | 14
TFTRSTNSRIKASMP | 8
FKDQVILLNKHIDAY | 33
LKPFERDISTEIYQA | 17
LGDIAARDLICAQKF | 8
TITSGWTFGAGAALQ | 9
LPYGANKDGIIWVAT | 14

Sequence | Frequency of response (%)
AIAMACLVGLMWLSY | 8
TDYKHWPQIAQFAPS | 8
ESDDYIATNGPLKVG | 8
FGDQELIRQGTDYKH | 8
QMAYRFNGIGVTQNV | 7
PQNQRNAPRITFGGP | 6
YRINWITGGIAIAMA | 58
ADAVIKTLQPVSELL | 8
SWFTALTQHGKEDLK | 23
SVLYNSASFSTFKCY | 8
QFAPSASAFFGMSRI | 17
KIITLKKRWQLALSK | 9
LTQHGKEDLKFPRGQ | 8
KEGQINDMILSLLSK | 33
RFYFYTSKTTVASLI | 8
YSRYRIGNYKLNTDH | 15
GKGQQQQGQTVTKKS | 7
QKKQQTVTLLPAADL | 7
LTGTGVLTESNKKFL | 7
RVAGDSGFAAYSRYR | 15
SEMVMCGGSLYVKPG | 6
FVSGNCDVVIGIVNN | 7
DSKTQSLLIVNNATN | 9
ALLAVFQSASKIITL [SEQ ID NO 249] | 9

Same assay, conditions: CD4+ T cell epitopes identified by AIM assay; sum of response per responding donor

Sequence | Magnitude by # of responding donors
PNFSKLINIIIWFLL | 3802
GYKKPASRELKVTFF | 246
FNICQAVTANVNALL | 220
GTILTRPLLESELVI | 161
IGNYKLNTDHSSSSD | 134
TRRIRGGDGKMKDLS | 151
NKDGIIWVATEGALN | 437
CVDEAGSKSPIQYID | 327
LEAPFLYLYALVYFL | 272
KEITVATSRTLSYYK | 516
TNCYDYCIPYNSVTS | 402
RGHLRIAGHHLGRCD | 472
FGTTLDSKTQSLLIV | 174
FVSLAIDAYPLTKHP | 115
VNARLRAKHYVYIGD | 116
FGLVAEWFLAYILFT | 219
EKSNIIRGWIFGTTL | 299
DAALALLLLDRLNQL [SEQ ID NO 246] | 488
EGALNTPKDHIGTRN | 185
TFTRSTNSRIKASMP | 120
FKDQVILLNKHIDAY | 446
LKPFERDISTEIYQA | 594
LGDIAARDLICAQKF | 153
TITSGWTFGAGAALQ | 164
LPYGANKDGIIWVAT | 418
AIAMACLVGLMWLSY | 151
TDYKHWPQIAQFAPS | 180
CPFGEVFNATRFASV | 108

Sequence | Magnitude by # of responding donors
YIRVGARKSAPLIEL [SEQ ID NO 256] | 366
LMIERFVSLAIDAYP [SEQ ID NO 259] | 388
ESDDYIATNGPLKVG | 133
FGDQELIRQGTDYKH | 281
QMAYRFNGIGVTQNV | 160
APHGVVFLHVTYVPA | 293
PQNQRNAPRITFGGP | 222
TQLNRALTGIAVEQD | 260
YRINWITGGIAIAMA | 345
ADAVIKTLQPVSELL | 436
SWFTALTQHGKEDLK | 1088
SVLYNSASFSTFKCY | 892
QFAPSASAFFGMSRI | 191
KIITLKKRWQLALSK | 120
CTFEYVSQPFLMDLE | 619
LTQHGKEDLKFPRGQ | 127
KEGQINDMILSLLSK | 391
RFYFYTSKTTVASLI | 126
YSRYRIGNYKLNTDH | 276
GKGQQQQGQTVTKKS | 318
QKKQQTVTLLPAADL | 712
LTGTGVLTESNKKFL | 427
RVAGDSGFAAYSRYR | 139
SEMVMCGGSLYVKPG | 217
FVSGNCDVVIGIVNN | 180
DSKTQSLLIVNNATN | 108
ALLAVFQSASKIITL [SEQ ID NO 249] | 178

Same assay, conditions: CD4+ T cell epitopes identified by AIM assay; total response

Sequence | Sum of response
PNFSKLINIIIWFLL | 3802
GYKKPASRELKVTFF | 491
FNICQAVTANVNALL | 220
GTILTRPLLESELVI | 322
IGNYKLNTDHSSSSD | 267
TRRIRGGDGKMKDLS | 151
NKDGIIWVATEGALN | 1747
CVDEAGSKSPIQYID | 327
LEAPFLYLYALVYFL | 272
KEITVATSRTLSYYK | 3615
TNCYDYCIPYNSVTS | 402
RGHLRIAGHHLGRCD | 2359
FGTTLDSKTQSLLIV | 174
FVSLAIDAYPLTKHP | 230
VNARLRAKHYVYIGD | 116
FGLVAEWFLAYILFT | 219
EKSNIIRGWIFGTTL | 299
DAALALLLLDRLNQL [SEQ ID NO 246] | 1463
EGALNTPKDHIGTRN | 369
TFTRSTNSRIKASMP | 120
FKDQVILLNKHIDAY | 1785
LKPFERDISTEIYQA | 1188
LGDIAARDLICAQKF | 153
TITSGWTFGAGAALQ | 164
LPYGANKDGIIWVAT | 835

Sequence | Sum of response
AIAMACLVGLMWLSY | 151
TDYKHWPQIAQFAPS | 180
ESDDYIATNGPLKVG | 133
FGDQELIRQGTDYKH | 281
QMAYRFNGIGVTQNV | 160
PQNQRNAPRITFGGP | 222
YRINWITGGIAIAMA | 2417
ADAVIKTLQPVSELL | 436
SWFTALTQHGKEDLK | 3265
SVLYNSASFSTFKCY | 892
QFAPSASAFFGMSRI | 381
KIITLKKRWQLALSK | 120
LTQHGKEDLKFPRGQ | 127
KEGQINDMILSLLSK | 391
RFYFYTSKTTVASLI | 126
YSRYRIGNYKLNTDH | 551
GKGQQQQGQTVTKKS | 318
QKKQQTVTLLPAADL | 712
LTGTGVLTESNKKFL | 427
RVAGDSGFAAYSRYR | 278
SEMVMCGGSLYVKPG | 217
FVSGNCDVVIGIVNN | 180
DSKTQSLLIVNNATN | 108
ALLAVFQSASKIITL [SEQ ID NO 249] | 178

Same assay, conditions: CD4+ T cell epitopes identified by AIM assay; total response summed over donors

Sequence | Sum of response
CPFGEVFNATRFASV | 108
YIRVGARKSAPLIEL [SEQ ID NO 256] | 731
LMIERFVSLAIDAYP [SEQ ID NO 259] | 1941
APHGVVFLHVTYVPA | 293
TQLNRALTGIAVEQD | 260
CTFEYVSQPFLMDLE | 4332
